Measurements: patent US20050101640A1 (Recordati Ireland Limited, priority 2002, published 2005)
Marks after values point to notes of the source that are not given here.

Columns and labels:
[1] = test system: uninephrectomized anesthetized rats, renal ischemia/reperfusion hypertension; assay: Model of acute angiotensin-mediated renal hypertension in anesthetized rats (Example VI, with HCTZ); assay type: in vivo, Sprague-Dawley rats; conditions: for DBP / HR / SBP: mean ± S.E.M.
Source text: The animals were tracheotomized to facilitate spontaneous breathing.
Silk threads were placed around both vessels and ureter. The cavity was then covered with Vaseline oil.
Results are expressed as mean values ±S.E in the tables and as mean values ±S.E. and Δ±S.E. changes in the figures.

[2] = cited from earlier work
isolated rat aorta = conditions: in vitro; even after the drug has been removed for 6 hours; cited from earlier work
[3] = test system: uninephrectomized anesthetized rats, renal ischemia/reperfusion hypertension; assay: Model of acute angiotensin-mediated renal hypertension in anesthetized rats (Example I); conditions: for DBP mean change ± S.D: DBP decrease after 10 minutes from the start of drug administration, lercanidipine 10 μg/kg, lisinopril 30 μg/kg i.v. or both, Anova factorial model; for effect on systolic blood pressure and diastolic blood pressure compared to vehicle (and, for the combination, to either drug alone): lercanidipine 10 μg/kg i.v. or both; for DBP / HR / SBP: mean ± S.E.M.
Method: Male Sprague-Dawley rats, weighing 250-300 g, were anaesthetized with pentobarbital sodium (35 mg/kg, i.p.) and placed on a thermic blanket. The temperature was maintained at 37° C. with a thermoregulator via a rectal probe. The animals were tracheotomized to facilitate spontaneous breathing. A polyethylene catheter was placed in the left jugular vein to allow for infusion of pentobarbital sodium to maintain anesthesia. The left femoral vein and artery were cannulated with polyethylene catheters to allow drugs administration and to monitor blood pressure, respectively.
The animals then underwent a left nephrectomy by excising the left kidney via a flank incision. The right kidney and renal vein, artery and ureter then were exposed via a right retroperitoneal incision, under a dissecting microscope. Silk threads were positioned loosely around both vessels and ureter. The cavity was then covered with Vaseline oil.
After 30-60 minutes of basal recordings of arterial blood pressure and heart rate the threads around the renal vessels and ureter were tied close to the renal hilum to induce complete renal ischemia of the right kidney. After 2 hours of ischemia (designated as “120” in Tables 4-7), the threads were removed to allow renal reperfusion and urine output. […] To evaluate the effects of drugs administration on blood pressure and heart rate, two-way ANOVA and Dunnet's test was used.

[4] = time 0 min, basal, before ischemia and before drug
[5] = time 120 min, end of ischemia, before drug
[6] = time 125 min, 5 min after reperfusion, at drug administration (reference value)
[7] = time 130 min (5 min after i.v. drug), lisinopril+HCTZ 10+12 μg/kg, lercanidipine 7.5 μg/kg or all three
[8] = time 135 min (10 min after i.v. drug), lisinopril+HCTZ 10+12 μg/kg, lercanidipine 7.5 μg/kg or all three
[9] = time 150 min (25 min after i.v. drug), lisinopril+HCTZ 10+12 μg/kg, lercanidipine 7.5 μg/kg or all three
[10] = time 165 min (40 min after i.v. drug), lisinopril+HCTZ 10+12 μg/kg, lercanidipine 7.5 μg/kg or all three
[11] = time 180 min (55 min after i.v. drug), lisinopril+HCTZ 10+12 μg/kg, lercanidipine 7.5 μg/kg or all three
[12] = time 130 min (5 min after i.v. drug), lisinopril 30 μg/kg, lercanidipine 10 μg/kg or both
[13] = time 135 min (10 min after i.v. drug), lisinopril 30 μg/kg, lercanidipine 10 μg/kg or both
[14] = time 150 min (25 min after i.v. drug), lisinopril 30 μg/kg, lercanidipine 10 μg/kg or both
[15] = time 165 min (40 min after i.v. drug), lisinopril 30 μg/kg, lercanidipine 10 μg/kg or both
[16] = time 180 min (55 min after i.v. drug), lisinopril 30 μg/kg, lercanidipine 10 μg/kg or both

## COC(=O)C1=C(C)NC(C)=C(C(=O)OC(C)(C)CN(C)CCC(c2ccccc2)c2ccccc2)C1c1cccc([N+](=O)[O-])c1 (centres unmarked) [lercanidipine, methyl 1,1,N-trimethyl-N-(3,3-diphenylpropyl)-2-aminoethyl 1,4-dihydro-2,6-dimethyl-4-(3-nitrophenyl)pyridine-3,5-dicarboxylate]
[1]; i.v. at peak of reperfusion hypertension, lisinopril+HCTZ 10+12 μg/kg, lercanidipine 7.5 μg/kg or all three
  effect on blood pressure (in words): statistically significant decrease in diastolic blood pressure
[1]; lisinopril+HCTZ 10+12 μg/kg, lercanidipine 7.5 μg/kg i.v. or all three
  effect on heart rate (in words): positive chronotropic effect
[1]; [4]
  DBP: 82.7 ± 2.7 mmHg
  HR: 380.0 ± 17.2 beats/min
  SBP: 115.0 ± 3.1 mmHg
[1]; [5]
  DBP: 65.8 ± 4.6 mmHg
  HR: 376.0 ± 17.0 beats/min
  SBP: 103.8 ± 6.4 mmHg
[1]; [6]
  DBP: 107.0 ± 4.0 mmHg
  SBP: 138.0 ± 4.6 mmHg
[1]; [7]
  DBP: 87.0 ± 4.3 b mmHg
  HR: 434.0 ± 26.9 b beats/min
  SBP: 123.7 ± 3.2 mmHg
[1]; [8]
  DBP: 86.7 ± 5.0 b mmHg
  HR: 448.0 ± 14.4 b beats/min
  SBP: 121.7 ± 4.9 mmHg
[1]; [9]
  DBP: 86.0 ± 8.2 b mmHg
  HR: 444.0 ± 16.1 b beats/min
  SBP: 121.0 ± 7.0 mmHg
[1]; [10]
  DBP: 78.0 ± 7.6 b mmHg
  HR: 442.0 ± 20.4 b beats/min
  SBP: 112.3 ± 6.1 b mmHg
[1]; [11]
  DBP: 66.3 ± 8.0 b mmHg
  HR: 434.0 ± 20.9 b beats/min
  SBP: 99.8 ± 7.2 b mmHg
[2]; in vivo
  elimination route: essentially via the hepatic route
[2]; unmodified release oral dosage form
  time of peak plasma levels following dosing: 2 to 3 h
Isolated rat aorta
  isolated rat aorta response to high K+: attenuated
[3]
  DBP mean change ± S.D: 26.13 ± 8.68^a
[3]; lisinopril 30 μg/kg
  effect on systolic blood pressure and diastolic blood pressure compared to vehicle (and, for the combination, to either drug alone): significant decreases
[3]; [4]
  DBP: 69.8 ± 2.5 mmHg
  HR: 359.6 ± 13.9 beats/min
  SBP: 110.4 ± 3.6 mmHg
[3]; [5]
  DBP: 70.6 ± 5.4 mmHg
  HR: 359.3 ± 7.8 beats/min
  SBP: 114.5 ± 6.5 mmHg
[3]; [6]
  DBP: 119.3 ± 5.2 mmHg
  HR: 383.6 ± 9.9 beats/min
  SBP: 167.6 ± 8.9 mmHg
[3]; [12]
  DBP: 97.1 ± 3.1^b mmHg
  HR: 433.1 ± 8.9^b beats/min
  SBP: 140.4 ± 3.8^b mmHg
[3]; [13]
  DBP: 93.1 ± 4.0^b mmHg
  HR: 448.0 ± 6.2^b beats/min
  SBP: 140.5 ± 3.7^b mmHg
[3]; [14]
  DBP: 89.5 ± 4.3^b mmHg
  HR: 443.6 ± 8.2^b beats/min
  SBP: 139.4 ± 3.7^b mmHg
[3]; [15]
  DBP: 83.5 ± 4.6^b mmHg
  HR: 435.5 ± 11.2^b beats/min
  SBP: 132.0 ± 5.3^b mmHg
[3]; [16]
  DBP: 78.8 ± 4.0^b mmHg
  HR: 422.8 ± 12.0^b beats/min
  SBP: 128.1 ± 4.7^b mmHg

## NCCCC[C@H](N[C@@H](CCc1ccccc1)C(=O)O)C(=O)N1CCC[C@H]1C(=O)O [lisinopril]
[2]; following oral administration
  time of peak serum concentrations: ≤ 7 h
[3]
  DBP mean change ± S.D: 26.83 ± 4.40^a
[3]; lisinopril 30 μg/kg
  effect on systolic blood pressure and diastolic blood pressure compared to vehicle (and, for the combination, to either drug alone): significant decreases
[3]; [4]
  DBP: 73.3 ± 3.2 mmHg
  HR: 393.3 ± 8.8 beats/min
  SBP: 104.2 ± 3.0 mmHg
[3]; [5]
  DBP: 68.3 ± 2.3 mmHg
  HR: 390.3 ± 10.0 beats/min
  SBP: 99.3 ± 2.4 mmHg
[3]; [6]
  DBP: 117.3 ± 1.3 mmHg
  SBP: 154.3 ± 3.6 mmHg
[3]; [12]
  DBP: 92.5 ± 1.0^b mmHg
  HR: 408.3 ± 12.3 beats/min
  SBP: 120.7 ± 1.7^b mmHg
[3]; [13]
  DBP: 90.5 ± 1.2^b mmHg
  HR: 405.8 ± 9.7 beats/min
  SBP: 119.0 ± 2.1^b mmHg
[3]; [14]
  DBP: 77.7 ± 4.1^b mmHg
  HR: 406.7 ± 13.1 beats/min
  SBP: 111.0 ± 4.0^b mmHg
[3]; [15]
  DBP: 64.0 ± 4.8^b mmHg
  HR: 406.7 ± 18.2 beats/min
  SBP: 96.0 ± 6.0^b mmHg
[3]; [16]
  DBP: 57.3 ± 5.1^b mmHg
  HR: 400.0 ± 14.6 beats/min
  SBP: 90.2 ± 6.8^b mmHg
